Measurements taken from patent publication US6635631B2, “Iron compounds, compositions, methods of making the same and uses thereof” (Vitra Pharmaceuticals, Ltd., priority 1995, dated 2003).
“And” between values parts separate entries of the source, which are not always exact repeats. Equal entries are not always repeated. Blank lines part the entries; values can stand above or below the compound they belong to.

Assays:
[1] = pH and stability of solutions of the complexes (description); format: physicochemical; conditions: for stability in solution: buffered pH of 7
[2] = Solubility of iron complexes and mixtures (description); format: physicochemical; conditions: for solubility relative to the 1:3 iron/hydroxypyrone molar ratio complex: 1:1 complexes
[3] = Tests to determine optimum pH and molar ratios of iron:hydroxypyrone for synthesis of the 1:1 complex; format: physicochemical; conditions: pH 1-2
Method: Further tests to determine the optimum pH and molar ratios of iron:hydroxypyrone for synthesis of the 1:1 complex were carried out using iron:hydroxypyrone (maltol) ratios of 1:1.1, 1:1.15 and 1:1.25. For each ratio concentrations of 1M, 0.1M and 0.01M were tested. In the tests iron was used in an aqueous form.

red blood cell = assay: Initial toxicity studies: red blood cell haemolysis; format: cell-based; conditions: liquid formulations
[4] = In vivo test in man: ICPOES analysis for iron in serum; conditions: for Iron concentration [Fe] (s.d.) in serum: man, with 10% excess maltol
Description: A composition of the invention comprising ferric maltol chloride ([FeM]^++Cl2−) ie. a 1:1 iron:hydroxypyrone complex together with a small (10%) excess of moltol (uncomplexed hydroxypyrone).

[5] = Effect on iron absorption in vivo of maltol as a diet supplement (liver iron); set-up: species or system Male Wistar rats; conditions: for Liver Fe: rats fed maltol 50 mg/kg by gavage on alternate days, individual animals 1-6; for Liver Fe, MEAN: rats fed maltol 50 mg/kg
Method: Male Wistar rats, housed in polyethylene cages, initially weighing 70-80 grams were given a normal powder diet and water ad libitum for two weeks prior to treatment with maltol by gavage. Provided the animal was showing normal growth, treatment by gavage with maltol at 50 mg/kg was commenced and continued on alternate days for a further two weeks. At the end of the experimental period the animals were sacrificed, the livers were excised, mass determined and the sub cellular fraction assayed for iron be electrothermal atomic absorption. […]. The iron content of the diet is 240 mg/kg of food and the daily consumption of the rats is approximately 20 g which contains 4.8 mg as iron. The content of maltol in the diet is approximately 10 mg which is a ratio of iron/maltol of 4.8/10.0 which is approximately a 1:1 molar ratio (actual 1:1 is 4.5/10/0).
The liver content and concentration of iron in the sub cellular fraction were compared with the control group fed the same diet over the month, but without maltol.

[6] = Stability of the 1:1 molar ratio complex of iron and hydroxypyrone (visual precipitates, UV-V spectroscopy); format: physicochemical
Method: Various solutions of iron (III),and hydroxypyrone (ethylmaltol) were buffered to pH 7 with 50 mM morpholine propane sulphonate (MOPS) 50 mM, to pH 5 with sodium acetate (50 mM) and to pH 3 with glycine (50 mM). Iron III nitrate 9 H2O was used as a source of iron.

[7] = In vivo test in man: plasma iron concentration by ICP after oral ferric monomaltol citrate; conditions: time 0 mins (resting value)
Method: A composition of the invention comprising ferric monomaltol citrate with 30 mg as iron in 5 ml of water was administered orally to a person who had fasted for 24 hours. The plasma iron concentration in the subject's bloodstream was determined by the ICP [inductively coupled plasma, (Machine Jobin Yvonne Modol 20)] technique which determines the emission spectra of elements by optical spectrometry when samples are subjected to a very hot flame. The technique is very sensitive and the accuracy and precision is less than +or −1%.

- solubility relative to the 1:3 iron/hydroxypyrone molar ratio complex [2]: approximately ten times more soluble
- stability of solutions ([6]; 0.1M, 0.01M and 0.001M, pH 3, 5 and 7): stable for up to two months
Structure (SMILES): CCc1occc(=O)c1[O-].[Fe+3] [iron ethyl maltol]
- formation of ferric triethylmaltol (1:3 complex) ([6]; wide concentration range, up to pH 7): no ferric triethylmaltol is found even at pH 7

- Iron concentration [Fe] (s.d.) in serum ([4]; time 0 min, n = 2): 1188.81 (17.57) ppb
- Iron concentration [Fe] (s.d.) in serum ([4]; time 20 min, n = 2): 1387.66 (63.08) ppb
- Iron concentration [Fe] (s.d.) in serum ([4]; time 60 min, n = 2): 1600.62 (115.83) ppb
- Iron concentration [Fe] (s.d.) in serum ([4]; time 120 min, n = 1): 1312.74 (0) (n = 1) ppb
Structure (SMILES): Cc1occc(=O)c1[O-].[Cl-].[Cl-].[Fe+3] [ferric maltol chloride]

Second part, the compound before the results:

Structure (SMILES): O=S(=O)([O-])[O-].[Fe+2] [ferrous sulphate, reference compound]
- stability in solution [1]: precipitate very rapidly

Structure (SMILES): Cc1occc(=O)c1[O-].[Fe+3] [ferric monomaltol]
- solubility relative to the 1:3 iron/hydroxypyrone molar ratio complex [2]: approximately ten times more soluble
- solubility ([2]; pH 1-2): very soluble
- stability in solution [1]: stability for extended periods (for example six months)
- natural pH ([1]; solution): approximately 2.8
- proportion of the solution that comprises the 1:1 complex [3]: ~80%
- red blood cell haemolysis and breakdown (red blood cell): do not cause red blood cell haemolysis and red blood cell breakdown
- iron uptake ([4]; in vivo, po): taken up well

Structure (SMILES): Cc1occc(=O)c1O [Maltol, 3-hydroxy-2-methyl-4-pyrone]
- Liver Fe ([5]; iron concentration, µg per g liver): 118.8 µg/g and 113.2 µg/g and 87.3 µg/g and 165.8 µg/g and 149.2 µg/g and 123.4 µg/g
- Liver Fe ([5]; total iron, mg per liver): 1.44 mg/liver and 1.14 mg/liver and 0.86 mg/liver and 1.87 mg/liver and 1.69 mg/liver and 1.25 mg/liver
- Liver Fe, MEAN ([5]; mean of 6 animals (control 1.06 ± 0.25)): 1.38 ± 0.37 mg/liver
- Liver Fe, MEAN ([5]; mean of 6 animals (control 120.1 ± 30.2)): 126.3 ± 27.7 µg/g
- change in liver iron content versus control ([5]; rats, maltol 50 mg/kg by gavage): small but significant increase

Structure (SMILES): Cc1occc(=O)c1[O-].O=C([O-])CC(O)(CC(=O)O)C(=O)[O-].[Fe+3] [ferric monomaltol citrate]
- iron conc (plasma) ([7]; 30 mg as iron in 5 ml water, fasted 24 hours): 1.2 µg/mL
- iron conc (plasma) ([7]; 30 mg as iron): 21.8 µmol/L
